Peptide text beside a SMILES is read from it.
How the values were obtained:
[1] = Solubility in water at room temperature; assay type: physicochemical; conditions: for solubility: in water at room temperature; for solubility in water, comparison in words: compared with other dihydrochalcones / with 3-phenyl-1-(2,4,6-trimethoxyphenyl)propan-1-one
[2] = Masking of off-notes of high-intensity sweeteners (comparison of dihydrochalcones); conditions: used at soluble concentrations
[3] = relative to sucrose; cited from earlier work

Row | Compound | solubility [1] | masking properties / masking effect [2] | solubility in water, comparison in words [1] | times sweeter than sucrose [3]
1 | COc1ccc(CCC(=O)c2c(O)cc(OC)cc2OC)cc1 [1-(2-hydroxy-4,6-dimethoxyphenyl)-3-(4-methoxyphenyl)propan-1-one] | below 5 ppm | significantly lower masking effect |  | 
2 | COc1cc(OC)c(C(=O)CCc2ccccc2)c(OC)c1 [3-phenyl-1-(2,4,6-trimethoxy-phenyl)propan-1-one] | greater than 30 ppm | particularly good masking properties | much higher solubility in water than other dihydrochalcones | 
3 | COC(=O)[C@H](Cc1ccccc1)NC(=O)[C@@H](N)CC(=O)O [Aspartame] (H-Asp-Phe-OMe) |  |  |  | 160-200 times
4 | O=C(CCc1ccc(O)cc1)c1c(O)cc(O)cc1O [phloretin, 3-(4-hydroxyphenyl)-1-(2,4,6-trihydroxyphenyl)propan-1-one] |  | did not provide masking properties | soluble to a similar extent | 
5 | O=S(=O)([O-])NC1CCCCC1.[Na+] [sodium cyclamate] |  |  |  | about 30 times
6 | OC[C@H]1O[C@H](O[C@]2(CCl)O[C@H](CCl)[C@@H](O)[C@@H]2O)[C@H](O)[C@@H](O)[C@H]1Cl [sucralose] |  |  |  | about 600 times
7 | thaumatin |  |  |  | about 2 000 times
